Legend:
[1] = system: Stat5 and Jak2 phosphorylation in PC cells; assay: ENZ-induced Jak2-Stat5 phosphorylation in PC cells (IP and WB); type: cell-based
Description: CWR22Pc and LAPC4 PC cells were treated with ENZ or vehicle for the indicated periods of time. Levels of active Stat5 were determined by immunoprecipitation (IP) of Stat5 followed by immunoblotting (WB) for pStat5a/b and total Stat5. Whole cell lysates (WCL) were immunoblotted for pStat3, Stat3 and Actin. […] CWR22Pc and LAPC4 cells were transduced with lentiviral AR shRNA (shAR) or lenti-shCtrl for 3 days followed by treatment with ENZ or vehicle for 7 days at the indicated concentrations.
PC cells were cultured with ENZ or Jak2 inhibitor AZD1480 (800 nM) alone or in combination for 12 days. Expression levels of active Stat5 were determined by IP of Stat5 followed by WB for pStat5a/b and total Stat5. WCLs were immunoblotted for pStat3, Stat3 and Actin. […] Jak2 was suppressed by lentiviral Jak2 shRNA vs. shCtrl in PC cells for 3 days followed by ENZ or vehicle for 7 days. Active Stat5, Stat5 and Jak2 levels were evaluated by IP and WB, as depicted. […] PC cells were treated with ENZ or vehicle for 6 h at the indicated concentrations. Control cells were stimulated with prolactin (Prl) (10 nM) for 20 min as control for cytokine-induced Jak2 phosphorylation. […] Alternatively, PC cells were treated with ENZ or vehicle for 12 days or stimulated with Prl for 20 min at the indicated concentrations. Stat5 and Jak2 were IP:ed and WB:ed for pStat5, pJak2, tot Stat5, and total Jak2.
To investigate whether AR is required for ENZ induction of Stat5 signaling, we inhibited AR expression in CWR22Pc and LAPC4 cells by genetic knockdown using lentiviral expression of AR shRNA (FIG. 9C).
To further assess the involvement of Jak2 in ENZ-induced Stat5 activation, Jak2 was genetically knocked down by lentiviral expression of Jak2 shRNA in CWR22Pc and LAPC4 cells for 3 days followed by ENZ treatment for 7 days.

[2] = system: EMT markers (N-cadherin, Vimentin, Twist1, E-cadherin) in PC cell lines; assay: EMT marker expression in PC cell lines treated with ENZ; type: cell-based; details: three PC cell lines, 12 days
Description: Lenti-viral expression of ShStat5 3 days prior to ENZ treatment (at indicated concentrations) blocked ENZ-induction of the EMT markers.
(§1) To evaluate if ENZ induces EMT and migration of PC cells in our hands, three different PC cell lines were treated with ENZ for 12 days and analyzed for the expression of EMT markers (N-cadherin, Vimentin and Twist1) by immunoprecipitation (IP) and western blotting (FIG. 13). […] The ENZ-induced PC cell migration was inhibited by genetic ablation of Stat5 by lentiviral expression of shStat5 vs. shCtrl (FIG. 14). Human CWR22Pc cells, when inoculated to the prostates of immunocompromised mice, form distant metastases in the liver in 8 weeks after orthotopic growth.

[3] = system: CWR22Rv1, CWR22Pc and LAPC4 cells; assay: PC cell migration, Boyden chamber assay; type: cell-based; details: Fibronectin chemoattractant
Description: Stat5 was genetically knocked down by lentiviral expression of shStat5 with shCtrl as control for 3 days followed by treatment with ENZ (40 μM; CWR22Pc, CWR22Rv1; 20 μM LAPC-4) vs. DMSO for 10 days. Equivalent numbers of cells were plated to Boyden chamber inserts with Fibronectin as the chemoattractant in the bottom well, and the migrated cells were imaged and counted.
as §1

[4] = system: nuclear active Stat5 in PCs; assay: Immunohistochemistry of active Stat5 in PCs of patients treated with ENZ; type: in vivo, human; details: biopsies of ENZ-treated PCs
Source text: We recently reported that ENZ induces a hyperactivated feed-forward Jak2-Stat5 signaling loop in PC to promote ENZ-resistant PC growth(50).

CRPC = details: cited from earlier work

CNC(=O)c1ccc(N2C(=S)N(c3ccc(C#N)c(C(F)(F)F)c3)C(=O)C2(C)C)cc1F [ENZ, 4-(3-(4-cyano-3-(trifluoromethyl)phenyl)-5,5-dimethyl-4-oxo-2-thioxoimidazolidin-1-yl)-2-fluoro-N-methylbenzamide]
Stat5 phosphorylation in PC cell lines ([1]; FIG. 9): induced a robust Stat5 phosphorylation
phosphorylation of Jak2 in PC cells ([1]; FIGS. 10C-10D): induced robust phosphorylation of Jak2
expression of EMT markers [2]: induced the expression of N-cadherin, Vimentin and Twist1, while suppressing E-cadherin expression
migration of PC cell lines [3]: induces a robust migration
levels of nuclear active Stat5 versus hormone-naïve PCs [4]: significantly (p<0.0001) elevated
improvement in survival of PC patients (CRPC): 4-6 months
